Laboratory results: patent publication US20130303763A1, “METHODS AND COMPOSITIONS FOR THE TREATMENT OF NECROTIZING ENTEROCOLITIS” (priority 2012, published 2013)

System: mice suffering from NEC
Assay: Treatment of necrotizing enterocolitis (NEC) induced in mice by a 5 day protocol of formula (gavage) feeding and hypoxia
Assay type: in vivo, mice (C57BL/6)
Procedure: Ten day-old breastfed SERT knockout mice, TPH1 knockout mice and wildtype littermate mice (C57BL/6) were subjected to a 5 day protocol of formula (gavage) feeding and hypoxia. This protocol reproducibly induces NEC in mice. Weights of all groups were monitored daily and cytokines were analyzed in the distal ileum at day 5. This experiment was then repeated using two groups of mice that received 100 mg/kg or 200 mg/kg of (2S)-ethyl 2-amino-3-(4-(2-amino-6-(2,2,2-trifluoro-1-(3′-fluoro-[1,1′-biphenyl]-4-yl)ethoxy)pyrimidin-4-yl)phenyl)propanoate (LP-920540), and a control group that received vehicle.

`CCOC(=O)[C@@H](N)Cc1ccc(-c2cc(OC(c3ccc(-c4cccc(F)c4)cc3)C(F)(F)F)nc(N)n2)cc1` (stereo partly drawn) [LP-920540, (2S)-ethyl 2-amino-3-(4-(2-amino-6-(2,2,2-trifluoro-1-(3′-fluoro-[1,1′-biphenyl]-4-yl)ethoxy)pyrimidin-4-yl)phenyl)propanoate] was tested, and the “weight loss versus vehicle-treated animals (FIG. 1)” value (100 or 200 mg/kg, five days of the experiment) was “lost significantly less weight”, the “mortality (FIG. 2)” value (100 or 200 mg/kg, vehicle treated animals 50%) was 5-10% and the “levels of transcripts encoding IL-6 versus vehicle-treated mice” value (distal ileum at day 5) was “significantly less upregulated”. The “levels of transcripts encoding IL-18 versus vehicle-treated mice” value (distal ileum at day 5) was “significantly less upregulated”.
